PubChem BioAssay AID248 (DTP/NCI, 2004)
Where “and” joins values, the source holds several entries; their conditions need not be identical. Identical values can stand only once. Toxic doses and inconclusive results are not listed. Cut-off read from the data, not from the text of the source: active = T/C of 150% or more; inactive = T/C below 125%.

Tested on: L1210 leukemia ip in BDF1 mice, survival T/C
Experiment: NCI In Vivo Anticancer Drug Screen. Data for tumor model L1210 Leukemia (intraperitoneal) in B6D2F1 (BDF1) mice
Details: endpoint: mean survival time, higher = longer survival
Summary of the method: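 Ratio derived from survival: compound-dosed mice over vehicle-dosed mice, all bearing a transplantable tumor.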

[1] = dose: 100.0 mg/kg/injection, schedule: Q04DX002 (ip), vehicle: Klucel (hydroxypropylcellulose) (HPC)
[2] = dose: 200.0 mg/kg/injection, schedule: Q04DX002 (ip), vehicle: Klucel (hydroxypropylcellulose) (HPC)
[3] = dose: 400.0 mg/kg/injection, schedule: Q04DX002 (ip), vehicle: Klucel (hydroxypropylcellulose) (HPC)
[4] = dose: 100.0 mg/kg/injection, schedule: Q01DX001 (ip), vehicle: saline
[5] = dose: 100.0 mg/kg/injection, schedule: Q01DX009 (ip), vehicle: saline
[6] = dose: 100.0 mg/kg/injection, schedule: Q04DX003 (ip), vehicle: saline
[7] = dose: 200.0 mg/kg/injection, schedule: Q01DX001 (ip), vehicle: saline
[8] = dose: 200.0 mg/kg/injection, schedule: Q01DX009 (ip), vehicle: saline
[9] = dose: 200.0 mg/kg/injection, schedule: Q04DX003 (ip), vehicle: saline
[10] = dose: 400.0 mg/kg/injection, schedule: Q01DX001 (ip), vehicle: saline
[11] = dose: 400.0 mg/kg/injection, schedule: Q04DX003 (ip), vehicle: saline
[12] = dose: 100.0 mg/kg/injection, schedule: Q04DX003 (ip), vehicle: saline with Tween-80
[13] = dose: 200.0 mg/kg/injection, schedule: Q04DX003 (ip), vehicle: saline with Tween-80
[14] = dose: 400.0 mg/kg/injection, schedule: Q04DX003 (ip), vehicle: saline with Tween-80
[15] = dose: 100.0 mg/kg/injection, schedule: Q04DX002 (ip), vehicle: saline with Tween-80
[16] = dose: 200.0 mg/kg/injection, schedule: Q04DX002 (ip), vehicle: saline with Tween-80
[17] = dose: 400.0 mg/kg/injection, schedule: Q04DX002 (ip), vehicle: saline with Tween-80
[18] = dose: 100.0 mg/kg/injection, schedule: Q04DX003 (ip), vehicle: Klucel (hydroxypropylcellulose) (HPC)
[19] = dose: 200.0 mg/kg/injection, schedule: Q04DX003 (ip), vehicle: Klucel (hydroxypropylcellulose) (HPC)
[20] = dose: 50.0 mg/kg/injection, schedule: Q01DX009 (ip), vehicle: saline

Measured: T/C

CN(CC#CCOc1ccc(Cl)cc1)c1ccccc1
inactive: dose: 12.5 mg/kg/injection, schedule: Q01DX001 (ip), vehicle: carboxymethylcellulose (CMC) 96 % of control | dose: 12.5 mg/kg/injection, schedule: Q01DX009 (ip), vehicle: carboxymethylcellulose (CMC) 97 % of control and 90 % of control | dose: 12.5 mg/kg/injection, schedule: Q04DX002 (ip), vehicle: carboxymethylcellulose (CMC) 93 % of control and 106 % of control | dose: 12.5 mg/kg/injection, schedule: Q04DX003 (ip), vehicle: carboxymethylcellulose (CMC) 103 % of control | dose: 25.0 mg/kg/injection, schedule: Q01DX001 (ip), vehicle: carboxymethylcellulose (CMC) 96 % of control | dose: 25.0 mg/kg/injection, schedule: Q01DX009 (ip), vehicle: carboxymethylcellulose (CMC) 93 % of control | dose: 25.0 mg/kg/injection, schedule: Q04DX002 (ip), vehicle: carboxymethylcellulose (CMC) 93 % of control and 110 % of control | dose: 25.0 mg/kg/injection, schedule: Q04DX003 (ip), vehicle: carboxymethylcellulose (CMC) 102 % of control | dose: 50.0 mg/kg/injection, schedule: Q01DX001 (ip), vehicle: carboxymethylcellulose (CMC) 96 % of control | dose: 50.0 mg/kg/injection, schedule: Q01DX009 (ip), vehicle: carboxymethylcellulose (CMC) 93 % of control and 90 % of control | dose: 50.0 mg/kg/injection, schedule: Q04DX002 (ip), vehicle: carboxymethylcellulose (CMC) 92 % of control and 94 % of control | dose: 50.0 mg/kg/injection, schedule: Q04DX003 (ip), vehicle: carboxymethylcellulose (CMC) 97 % of control | dose: 100.0 mg/kg/injection, schedule: Q04DX002 (ip), vehicle: carboxymethylcellulose (CMC) 95 % of control | dose: 200.0 mg/kg/injection, schedule: Q04DX002 (ip), vehicle: carboxymethylcellulose (CMC) 88 % of control | dose: 400.0 mg/kg/injection, schedule: Q04DX002 (ip), vehicle: carboxymethylcellulose (CMC) 88 % of control

CC(C)(C)NC(=O)NCc1cccc(Cl)c1
inactive: [1] 100 % of control | [2] 107 % of control | [3] 96 % of control

O=S(=O)(CC(Cl)c1ccccc1)c1ccc(F)cc1 (stereo not drawn)
inactive: [4] 109 % of control | [5] 91 % of control | [6] 91 % of control | [7] 100 % of control | [8] 110 % of control | [9] 97 % of control | [10] 97 % of control | dose: 400.0 mg/kg/injection, schedule: Q01DX009 (ip), vehicle: saline 99 % of control | [11] 98 % of control

CCOc1ccc(C=C(C#N)C#N)cc1OCC
inactive: [4] 105 % of control | [7] 102 % of control | [10] 90 % of control

Cc1ccc(C)c(N=C=O)c1
inactive: dose: 6.25 mg/kg/injection, schedule: Q01DX009 (ip), vehicle: saline with Tween-80 98 % of control | dose: 12.5 mg/kg/injection, schedule: Q01DX009 (ip), vehicle: saline with Tween-80 96 % of control | dose: 25.0 mg/kg/injection, schedule: Q01DX009 (ip), vehicle: saline with Tween-80 93 % of control | [12] 104 % of control | [13] 109 % of control

CC1(C)CCCC2(C)C3Cc4occc4C(C(=O)O)C3C(O)C(O)C12 (stereo not drawn)
inactive: [12] 106 % of control | [13] 109 % of control | [14] 98 % of control

CC(=O)NC1C(NC(=O)CC(NC(=O)OCc2ccccc2)C(=O)O)OC(COC(C)=O)C(OC(C)=O)C1OC(C)=O (stereo not drawn)
inactive: dose: 50.0 mg/kg/injection, schedule: Q04DX002 (ip), vehicle: saline 91 % of control | dose: 100.0 mg/kg/injection, schedule: Q04DX002 (ip), vehicle: saline 94 % of control | dose: 200.0 mg/kg/injection, schedule: Q04DX002 (ip), vehicle: saline 100 % of control

CN1CCN(C(=O)C2C(c3ccccc3)C2c2cccc(C(F)(F)F)c2)CC1 (stereo not drawn)
inactive: [15] 103 % of control | [16] 98 % of control | [17] 92 % of control

N#CN1CCCC1
inactive: dose: 44.0 mg/kg/injection, schedule: Q01DX Z (ip), vehicle: saline 98 % of control | dose: 66.0 mg/kg/injection, schedule: Q01DX Z (ip), vehicle: saline 102 % of control

CCC(F)C(Br)C(=O)O (stereo not drawn)
inactive: [15] 101 % of control | [16] 93 % of control | [17] 87 % of control

O=C(Nc1ccc(I)cc1)c1cc([N+](=O)[O-])ccc1O
inactive: dose: 17.0 mg/kg/injection, schedule: Q02DX010 (ip), vehicle: carboxymethylcellulose (CMC) 99 % of control | dose: 34.0 mg/kg/injection, schedule: Q02DX010 (ip), vehicle: carboxymethylcellulose (CMC) 103 % of control | dose: 68.0 mg/kg/injection, schedule: Q02DX010 (ip), vehicle: carboxymethylcellulose (CMC) 97 % of control | dose: 136.0 mg/kg/injection, schedule: Q02DX010 (ip), vehicle: carboxymethylcellulose (CMC) 95 % of control | dose: 272.0 mg/kg/injection, schedule: Q02DX010 (ip), vehicle: carboxymethylcellulose (CMC) 98 % of control

CC(=O)/C=C(\C)OC1CCCCC1
inactive: [12] 98 % of control | [13] 95 % of control | [14] 91 % of control

O=CN/N=C/c1cc(Cl)cc(Cl)c1O
inactive: [18] 100 % of control | [19] 92 % of control | dose: 400.0 mg/kg/injection, schedule: Q04DX003 (ip), vehicle: Klucel (hydroxypropylcellulose) (HPC) 94 % of control

FC1(F)C=C(c2ccccc2)C1(Cl)Cl
inactive: dose: 25.0 mg/kg/injection, schedule: Q01DX009 (ip), vehicle: Klucel (hydroxypropylcellulose) (HPC) 102 % of control | dose: 50.0 mg/kg/injection, schedule: Q01DX009 (ip), vehicle: Klucel (hydroxypropylcellulose) (HPC) 100 % of control | dose: 100.0 mg/kg/injection, schedule: Q01DX009 (ip), vehicle: Klucel (hydroxypropylcellulose) (HPC) 92 % of control and 98 % of control | [18] 107 % of control | [19] 113 % of control

ClC1OCCOC1Cl (stereo not drawn)
inactive: [20] 102 % of control | [5] 91 % of control | [6] 92 % of control | [8] 100 % of control

CCc1cc[c]([Hg][Cl])o1
inactive: dose: 12.5 mg/kg/injection, schedule: Q01DX001 (ip), vehicle: other 100 % of control | dose: 25.0 mg/kg/injection, schedule: Q01DX001 (ip), vehicle: other 100 % of control

COC(=O)c1ccc(-c2c3ccc(=O)cc-3oc3cc(O)ccc23)c(C(=O)OC)c1
inactive: dose: 50.0 mg/kg/injection, schedule: Q04DX003 (ip), vehicle: gum acacia 102 % of control | dose: 100.0 mg/kg/injection, schedule: Q04DX003 (ip), vehicle: gum acacia 98 % of control | dose: 200.0 mg/kg/injection, schedule: Q04DX003 (ip), vehicle: gum acacia 102 % of control | dose: 400.0 mg/kg/injection, schedule: Q04DX003 (ip), vehicle: gum acacia 95 % of control

CN(Cc1ccccc1)C(=O)C(c1ccccc1)c1ccccc1
inactive: [1] 89 % of control | [2] 86 % of control | [3] 96 % of control

CN1CN(c2ccccc2)C2(CCN(CCC3Oc4ccccc4O3)CC2)C1=O
inactive: dose: 100.0 mg/kg/injection, schedule: Q01DX001 (ip), vehicle: Klucel (hydroxypropylcellulose) (HPC) 102 % of control | dose: 200.0 mg/kg/injection, schedule: Q01DX001 (ip), vehicle: Klucel (hydroxypropylcellulose) (HPC) 98 % of control | dose: 400.0 mg/kg/injection, schedule: Q01DX001 (ip), vehicle: Klucel (hydroxypropylcellulose) (HPC) 103 % of control

CN(C)c1nnc(-c2ccc(Cl)cc2)nn1
inactive: dose: 100.0 mg/kg/injection, schedule: Q01DX001 (ip), vehicle: saline with Tween-80 96 % of control | dose: 200.0 mg/kg/injection, schedule: Q01DX001 (ip), vehicle: saline with Tween-80 92 % of control | dose: 400.0 mg/kg/injection, schedule: Q01DX001 (ip), vehicle: saline with Tween-80 88 % of control

CN(CCO)C(=O)/C=C/c1ccccc1
inactive: [20] 100 % of control | [5] 94 % of control | [8] 92 % of control

CC(C(O)c1cccs1)C(O)(C(F)(F)F)C(F)(F)F (stereo not drawn)
inactive: [12] 102 % of control | [13] 91 % of control | [14] 88 % of control

CC(C)C1(O)C=CC(C)(O)CC1 (stereo not drawn)
inactive: [6] 102 % of control | [9] 102 % of control | [11] 107 % of control
